In one test the target is T1, IKKε (Homo sapiens, UniProt Q14164).
T1 construct: His-tag; made in house; host or cells: Sf9 insect cells
T1 sequence (Q14164 1-716): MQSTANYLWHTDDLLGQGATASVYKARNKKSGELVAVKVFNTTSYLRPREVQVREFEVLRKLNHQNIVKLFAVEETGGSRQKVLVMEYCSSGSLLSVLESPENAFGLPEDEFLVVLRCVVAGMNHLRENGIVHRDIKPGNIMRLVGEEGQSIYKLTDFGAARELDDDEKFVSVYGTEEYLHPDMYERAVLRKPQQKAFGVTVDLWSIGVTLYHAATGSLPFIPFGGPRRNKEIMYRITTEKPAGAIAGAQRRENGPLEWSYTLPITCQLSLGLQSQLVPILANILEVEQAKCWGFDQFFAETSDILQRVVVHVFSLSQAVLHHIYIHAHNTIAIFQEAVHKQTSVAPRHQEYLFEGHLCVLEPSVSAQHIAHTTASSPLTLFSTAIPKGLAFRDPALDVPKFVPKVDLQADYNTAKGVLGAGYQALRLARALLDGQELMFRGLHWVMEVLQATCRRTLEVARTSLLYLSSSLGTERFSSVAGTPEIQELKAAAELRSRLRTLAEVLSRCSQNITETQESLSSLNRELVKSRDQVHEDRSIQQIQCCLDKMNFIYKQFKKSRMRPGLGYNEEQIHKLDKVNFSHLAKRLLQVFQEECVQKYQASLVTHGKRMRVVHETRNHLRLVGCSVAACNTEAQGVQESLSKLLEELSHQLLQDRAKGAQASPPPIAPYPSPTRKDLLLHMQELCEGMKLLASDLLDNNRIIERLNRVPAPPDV
The test is described as follows: In-vitro IKKε kinase assay ([γ33]ATP filter-plate). The test is classed as biochemical. Conditions: text bins; read-out: IC50 for inhibition of the kinase activity of IKKε. In a few lines: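 His-tagged IKKε and TBK1 from Sf9 cells were assayed with myelin basic protein or casein and [γ33]ATP at 2×Km ATP (32 μM for IKKε, 60 μM for TBK1). Enzyme was 0.1 or 0.015 μg/ml for IKKε and 0.1 or 0.02 μg/ml for TBK1 (normal/sensitized). Reactions ran 30-45 min, were filter-captured, scintillation-counted, and normalized to DMSO after background subtraction.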

In test [1] the test system is IKKε-mediated phosphorylation of IRF3. The test is described as follows: In-situ phosphorylation of IRF3 (pIRF3 Ser396 ELISA) in HEK293T cells cotransfected with IRF3 and IKKε. The test is classed as cell-based. Conditions: Homo sapiens, HEK-293T; HEK293T cells, 20 hours, text bins; read-out: IC50 for inhibition of the in-situ IKKε-mediated phosphorylation of IRF3. How it is done:
HEK293T cells were cotransfected in a 10-cm dish with IRF3 and IKKε expression plasmids using Lipofectamine 2000 (Invitrogen, Carlsbad, Calif.). The following day, cells were replated at 20,000 per well in 96-well plates and treated with test compounds (compounds according to Formula I) for 20 hours. Cell lysates were prepared and analyzed using an ELISA for phospho-Ser396 (anti-IRF3 capture antibody, Santa Cruz Biotechnology, Inc., Santa Cruz, Calif.; anti-p-Ser396 IRF3 detection antibody, Cell Signaling, Danvers, Mass.). pIRF3 levels in compound treated cells were normalized to DMSO treated cells (no compound). Cell viability was assayed in a parallel set of plates to monitor cytotoxic effects of the test compounds (CellTiter-Glo, Promega, Inc., Madison, Wis.). TBK1 activity was tested by Western blotting using a phospho-specific IRF7 antibody. Similar to above, HEK293T cells were transfected with IRF7 and TBK1 expression plasmids. Cells were seeded in 12-well plates at 150,000 per well and treated overnight with test compounds. Protein lysates were prepared and processed for Western blotting followed by detection using a phosphor-Ser477/Ser479 IRF7 antibody (BD Biosciences, San Jose, Calif.)
Background: In an ELISA, binding on a coated surface is turned into a signal by an enzyme label.

Bounds are passed on as bounds.

These results are taken from patent US20150352108A1, “AMINO-PYRIMIDINE COMPOUNDS AS INHIBITORS OF TBK1 AND/OR IKK EPSILON” (Alzheimer's Institute of America, priority 2009, published 2015).

In the case of `CCN(CC)CCOc1cc(Nc2nccc(-c3ccc(OC4CCN(C(=O)[C@H](C)O)CC4)c(C#N)c3)n2)ccc1F` [compound 577, 5-[2-({3-[2-(Diethylamino)ethoxy]-4-fluorophenyl}amino)pyrimidin-4-yl]-2-({1-[(2S)-2-hydroxypropanoyl]piperidin-4-yl}oxy)benzonitrile], the results for the IC50 (at IKKε; in test [1]) were below 5 nM and 250 to 500 nM, respectively.

In the case of `CCN(CC)CCOc1cc(Nc2nccc(-c3ccc(OCC4CC4)c(C#N)c3)n2)ccc1F` [compound 535, 2-(Cyclopropylmethoxy)-5-[2-({3-[2-(diethylamino)ethoxy]-4-fluorophenyl}amino)pyrimidin-4-yl]benzonitrile], the IC50 at IKKε is below 5 nM; in test [1], 250 to 500 nM.

On to `COc1cc(Nc2nccc(-c3ccc(OCC4CC4)c(C#N)c3)n2)ccc1CN1CC(OC)C1` [compound 617, 2-(Cyclopropylmethoxy)-5-[2-({3-methoxy-4-[(3-methoxyazetidin-1-yl)methyl]phenyl}amino)pyrimidin-4-yl]benzonitrile], for which the IC50 is below 5 nM on IKKε and 100 to 250 nM in test [1].

`CN(C)CCNc1cccc(Nc2nccc(-c3ccc(OC4CCOCC4)c(C#N)c3)n2)c1` [compound 540, 5-{2-[(3-{[2-(Dimethylamino)ethyl]amino}phenyl)amino]pyrimidin-4-yl}-2-(tetrahydro-2H-pyran-4-yloxy)benzonitrile]: the IC50 is below 5 nM on IKKε and below 100 nM in test [1].

In the case of `C[C@@H](O)C(=O)Nc1cccc(Nc2nccc(-c3ccc(OC4CCOCC4)c(C#N)c3)n2)c1` [compound 659, (2R)-N-[3-({4-[3-Cyano-4-(tetrahydro-2H-pyran-4-yloxy)phenyl]pyrimidin-2-yl}amino)phenyl]-2-hydroxypropanamide], the IC50 is below 5 nM at IKKε and 100 to 250 nM in test [1].

For `COC1CN(C(=O)Nc2cccc(Nc3nccc(-c4ccc(OC5CCOCC5)c(C#N)c4)n3)c2)C1` [compound 668, N-[3-({4-[3-Cyano-4-(tetrahydro-2H-pyran-4-yloxy)phenyl]pyrimidin-2-yl}amino)phenyl]-3-methoxyazetidine-1-carboxamide], the IC50 was below 5 nM at IKKε and 250 to 500 nM in test [1].

Regarding `N#Cc1cc(-c2nc(Nc3ccc(N4CCOCC4)cc3)ncc2F)ccc1OC1CCOCC1` [compound 592, 5-(5-Fluoro-2-{[4-(morpholin-4-yl)phenyl]amino}pyrimidin-4-yl)-2-(tetrahydro-2H-pyran-4-yloxy)benzonitrile], the IC50 was below 5 nM on IKKε and below 100 nM in test [1].

For the compound `CC(C)COc1ccc(-c2ccnc(Nc3ccc(N4CCN(CCO)CC4)cc3)n2)cc1C#N` [compound 442, 5-[2-({4-[4-(2-Hydroxyethyl)piperazin-1-yl]phenyl}amino)pyrimidin-4-yl]-2-(2-methylpropoxy) benzonitrile], the IC50 was below 5 nM on IKKε and below 100 nM in test [1].

Take `N#Cc1cc(-c2ccnc(Nc3cccc(CN4CCOCC4)c3)n2)ccc1OC1CCOCC1` [compound 638, 5-(2-{[3-(Morpholin-4-ylmethyl)phenyl]amino}pyrimidin-4-yl)-2-(tetrahydro-2H-pyran-4-yloxy)benzonitrile]: the IC50 is below 5 nM on IKKε and below 100 nM in test [1].

Turning to `Cc1ccc(Nc2nccc(-c3ccc(O[C@@H]4CCN(C(=O)CO)C4)c(C#N)c3)n2)cc1C` [compound 643, 5-{2-[(3,4-Dimethylphenyl)amino]pyrimidin-4-yl}-2-{[(3R)-1-(hydroxyacetyl)pyrrolidin-3-yl]oxy}benzonitrile], the IC50 on IKKε was below 5 nM; in test [1], 250 to 500 nM.

As to `N#Cc1cc(-c2ccnc(Nc3ccc(S(N)(=O)=O)cc3)n2)ccc1OC1CCOCC1` [compound 564, 4-({4-[3-Cyano-4-(tetrahydro-2H-pyran-4-yloxy)phenyl]pyrimidin-2-yl}amino) benzenesulfonamide], the IC50 on IKKε is below 5 nM; in test [1] it was 100 to 250 nM.

Take `Cc1nccn1Cc1ccc(Nc2nccc(-c3ccc(OC4CCOCC4)c(C#N)c3)n2)cc1` [compound 609, 5-[2-({4-[(2-Methyl-1H-imidazol-1-yl)methyl]phenyl}amino)pyrimidin-4-yl]-2-(tetrahydro-2H-pyran-4-yloxy)benzonitrile]: the IC50 at IKKε was below 5 nM; in test [1], below 100 nM.

With `N#Cc1cc(-c2ccnc(Nc3cccc(N4CCC[C@H]4CO)c3)n2)ccc1O[C@@H]1CCN(C(=O)CO)C1` [compound 669, 2-{[(3R)-1-(Hydroxyacetyl)pyrrolidin-3-yl]oxy}-5-[2-({3-[(2S)-2-(hydrfoxymethyl)pyrrolidin-1-yl]phenyl}amino)pyrimidin-4-yl]benzonitrile], the IC50 on IKKε is below 5 nM; in test [1], 100 to 250 nM.

With `COc1cc(Nc2ncc(F)c(-c3ccc(O[C@@H]4CCN(C(=O)CO)C4)c(C#N)c3)n2)ccc1N1CCOCC1` [compound 552, 5-(5-Fluoro-2-{[3-methoxy-4-(morpholin-4-yl)phenyl]amino}pyrimidin-4-yl)-2-{[(3R)-1-(hydroxyacetyl)pyrrolidin-3-yl]oxy}benzonitrile], the IC50 on IKKε was below 5 nM; in test [1] it was below 100 nM.

With `Cc1cn(Cc2cccc(Nc3nccc(-c4ccc(O[C@@H]5CCN(C(=O)CO)C5)c(C#N)c4)n3)c2)cn1` [compound 662, 2-{[(3R)-1-(Hydroxyacetyl)pyrrolidin-3-yl]oxy}-5-[2-({3-[(4-methyl-1H-imidazol-1-yl)methyl]phenyl}amino)pyrimidin-4-yl]benzonitrile], the values for the IC50 (on IKKε; in test [1]) were below 5 nM and below 100 nM, respectively.

In the case of `CCc1cccc(Nc2nccc(-c3ccc(O[C@@H]4CCN(C(=O)CO)C4)c(C#N)c3)n2)c1` [compound 544, 5-{2-[(3-Ethylphenyl)amino]pyrimidin-4-yl}-2-{[(3R)-1-(hydroxyacetyl)pyrrolidin-3-yl]oxy}benzonitrile], the IC50 on IKKε was below 5 nM; in test [1], 250 to 500 nM.

On to `COc1cc(Nc2nccc(-c3ccc(OCC(C)C)c(C#N)c3)n2)ccc1CN1CC(OC)C1` [compound 600, 5-[2-({3-Methoxy-4-[(3-methoxyazetidin-1-yl)methyl]phenyl}amino)pyrimidin-4-yl]-2-(2-methylpropoxy) benzonitrile], for which the IC50 on IKKε lay in the range of 5 to 50 nM; in test [1] it was 100 to 250 nM.

As for `N#Cc1cc(-c2ccnc(Nc3ccc(F)c(OC4CCNC4)c3)n2)ccc1OCC1CC1` (stereo not drawn) [compound 670, 2-(Cyclopropyl-methoxy)-5-(2-{[4-fluoro-3-(pyrrolidin-3-yloxy)phenyl]amino}pyrimidin-4-yl)benzonitrile], the IC50 on IKKε was below 5 nM; in test [1], 250 to 500 nM.

Take `Cc1ccc(Nc2nccc(-c3ccc(OC4CCOCC4)c(C#N)c3)n2)cc1NCCN(C)C` [compound 628, 5-[2-[[3-(2-dimethylamino-ethylamino)-4-methyl-phenyl]amino}pyrimidin-4-yl]-2-tetrahydropyran-4-yloxy-benzonitrile]: the IC50 on IKKε is below 5 nM; in test [1] it was below 100 nM.

Regarding `N#Cc1cc(-c2ccnc(Nc3ccc4[nH]cnc4c3)n2)ccc1OC1CCOCC1` [compound 583, 5-[2-(1H-Benzimidazol-5-ylamino)pyrimidin-4-yl]-2-(tetrahydro-2H-pyran-4-yloxy)benzonitrile], the IC50 is below 5 nM on IKKε and 250 to 500 nM in test [1].

In the case of `N#Cc1cc(-c2ccnc(Nc3ccc(-n4cnnc4)cc3)n2)ccc1OC1CCOCC1` [compound 607, 2-(Tetrahydro-2H-pyran-4-yloxy)-5-(2-{[4-(4H-1,2,4-triazol-4-yl)phenyl]amino}pyrimidin-4-yl)benzonitrile], the IC50 at IKKε was below 5 nM; in test [1], 100 to 250 nM.

For orientation: IC50 means the concentration that gives 50% inhibition.
